Laboratory results taken from patent publication US12233140B2, “Hyperbranched polyglycerol-coated particles and methods of making and using thereof” (priority 2014, dated 2025).

Experiments:
[1] = tested on: uterine papillary serous carcinoma (UPSC) cells; assay: In vitro cytotoxicity on UPSC cells, 72 h (Cell Titer Blue); format: cell-based; conditions: 3 days
Experimental: UPSC cells (180 μL) were plated in each well of a 96 well plate at a density of 2,000/well and left in a 37° C. incubator overnight. […] The cells were incubated for 72 h and cell viability was quantified with Cell Titer Blue.

[2] = tested on: i.p. USC tumors (USC-ARK-2 xenografts); assay: Survival and body weight of nude mice bearing intraperitoneal USC tumors, IP treatment; format: in vivo
Experimental: Forty BALB/c Nude mice (5-6 weeks old, Charles River Laboratories) were intraperitoneally injected with 1×10^6 UPSC cells. After 1 week, drug treatments were started with PBS control, blank PLA-HPGALD control and 3 EB formulations. […] Treatments were administrated intraperitoneally with a dose of EB (0.5 mg/kg) every week for 5 weeks. The body weights of the mice were measured twice a week. Animals were euthanized when the body weight loss exceeded 20%, or when other signals of sickness, such as breathing problems, failure to eat and drink, lethargy or abnormal posture, were observed.
BALB/c Nude mice (5-6 weeks old, Charles River Laboratories) were intraperitoneally injected with 1×10^6 USC cells. After 1 week, drug treatments were started with 8 animals in each group. […] In this experiment, treatments were administrated intraperitoneally with a 2.5 mg/kg dose of EB every week for 3 weeks. In another experiment, five groups were compared as described in Example 11.
The body weights of the mice were measured as described in Example 11.

[3] = Retention profile of EB in peritoneal cavity after IP injection (HPLC); conditions: 6 hr after a single IP dose, EB 2.5 mg/kg
Experimental: C57BL/6 mice (5-6 weeks old, Charles River Laboratories) were divided into three groups with 9 mice per group and one group with 3 mice. The group with 3 mice was used as a vehicle control. […] At each time point (6 hr, 1 d and 3 d), 3 mice from each group and one mouse from the 3-animal vehicle control group were euthanized and the peritoneal cavities washed with 5 mL acetonitrile for 3 times. The acetonitrile samples were centrifuged and the supernatant was collected and processed for HPLC analysis. EB concentration was determined with HPLC with C18 column with methanol/water (7:3) with UV detector set at 240 nm absorbance.

[4] = Retention of IR-780 loaded NPs in the peritoneal cavity after IP administration (live imaging); conditions: free dye control
Experimental: Six BALB/c nude mice were divided into 2 groups, 3 mice per group. […] Each mouse received 100 μL NP suspensions. The fluorescence was monitored with live imaging (Xenogen Corp., Alameda, CA) over time. The quantification of fluorescence retained in intraperitoneal cavity over time was determined.
Each mouse received 100 μL of the nanoparticle suspension at 10 mg/mL. The fluorescence was monitored with live imaging (Xenogen, Alameda, CA) over time.

SMILES | in vitro cytotoxicity against UPSC cells [1] | animals surviving to 110 days ([2]; EB 0.5 mg/kg) | body weight ([2]; EB 2.5 mg/kg) | death due to toxicity ([2]; EB 2.5 mg/kg) | survival compared with PBS ([2]; EB 2.5 mg/kg IP weekly for 3 weeks) | toxicity (weight loss, diarrhea, bowel dilation) ([2]; FIG. 18B) | survival compared with PBS ([2]; five-group experiment, EB 0.5 mg/kg IP weekly for 5 weeks) | EB retained in the peritoneal cavity [3] | time to complete clearance from the IP cavity [4]
C/C(=C\c1csc(C)n1)[C@@H]1C[C@@H]2O[C@]2(C)CCC[C@H](C)[C@H](O)[C@@H](C)C(=O)C(C)(C)[C@@H](O)CC(=O)O1 [free EB, epothilone B] | highest toxicity | approximately 10% | weight loss | early death due to EB toxicity | only mice treated with the lower dosage showed significance | significant toxicity | showed significance | No EB was detected | –
CCCN1C(=CC=C2CCCC(C=CC3=[N+](CCC)c4ccccc4C3(C)C)=C2Cl)C(C)(C)c2ccccc21.[I-] [Free dye, IR-780 iodide] | – | – | – | – | – | – | – | – | less than 4 hours
